The supplement of paper PMC11061612

Legend:
Trametinib = compound: CC(=O)Nc1cccc(-n2c(=O)n(C3CC3)c(=O)c3c(Nc4ccc(I)cc4F)n(C)c(=O)c(C)c32)c1 [Trametinib]; conditions: max 1 µM
Method in brief: (§1)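 Viability was measured with CellTiter-Glo 2.0 luminescence after 72 hours of dosing at a final DMSO of typically 0.2%, and scaled between blank-well and DMSO-well means. Beforehand, cancer cell lines sat 24 hours at 37°C and 5% CO2 in 1536-well plates in 7.5 μl DMEM/F12 or RPMI with 10% FBS. A non-linear mixed effects model fitted two-parameter logistic curves to the dose responses. The single-agent IC50 comes from these fits.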

AZD5991 = compound: Cc1c2c(nn1C)CSCc1cc(n(C)n1)CSc1cc(c3ccccc3c1)OCCCc1c(C(=O)O)n(C)c3c-2c(Cl)ccc13 [AZD5991]; conditions: max 1 µM
Method in brief: as §1

Selumetinib = compound: Cn1cnc2c(F)c(Nc3ccc(Br)cc3Cl)c(C(=O)NOCCO)cc21 [Selumetinib]; conditions: max 10 µM
Method in brief: as §1

AZD1390 = compound: CC(C)n1c(=O)n(C)c2cnc3cc(F)c(-c4ccc(OCCCN5CCCCC5)nc4)cc3c21 [AZD1390]; conditions: max 0.3 µM
Method in brief: as §1

Taselisib = compound: Cc1nc(-c2cn3c(n2)-c2ccc(-c4cnn(C(C)(C)C(N)=O)c4)cc2OCC3)n(C(C)C)n1 [Taselisib]; conditions: max 10 µM
Method in brief: as §1

Gefitinib = compound: COc1cc2ncnc(Nc3ccc(F)c(Cl)c3)c2cc1OCCCN1CCOCC1 [Gefitinib]; conditions: max 10 µM
Method in brief: as §1

AZD2811 = compound: CCN(CCO)CCCOc1ccc2c(Nc3cc(CC(=O)Nc4cccc(F)c4)[nH]n3)ncnc2c1 [AZD2811]; conditions: max 1 µM
Method in brief: as §1

Capivasertib = compound: C1CN(CCC1(C(=O)N[C@@H](CCO)C2=CC=C(C=C2)Cl)N)C3=NC=NC4=C3C=CN4 [Capivasertib]; conditions: max 10 µM
Method in brief: as §1

SG3199 = compound: CC1=CN2[C@@H](C1)C=NC3=CC(=C(C=C3C2=O)OC)OCCCCCOC4=C(C=C5C(=C4)N=C[C@@H]6CC(=CN6C5=O)C)OC [SG3199]; conditions: max 0.001 µM
Method in brief: as §1

Olaparib = compound: O=C(c1cc(Cc2n[nH]c(=O)c3ccccc23)ccc1F)N1CCN(C(=O)C2CC2)CC1 [Olaparib]; conditions: max 10 µM
Method in brief: as §1

AZD7648 = compound: Cc1cc2ncnn2cc1Nc1ncc2c(n1)n(C1CCOCC1)c(=O)n2C [AZD7648]; conditions: max 10 µM
Method in brief: as §1

Alisertib = compound: COc1cc(Nc2ncc3c(n2)-c2ccc(Cl)cc2C(c2c(F)cccc2OC)=NC3)ccc1C(=O)O [Alisertib]; conditions: max 10 µM
Method in brief: as §1

Venetoclax = compound: CC1(C)CCC(CN2CCN(c3ccc(C(=O)NS(=O)(=O)c4ccc(NCC5CCOCC5)c([N+](=O)[O-])c4)c(Oc4cnc5[nH]ccc5c4)c3)CC2)=C(c2ccc(Cl)cc2)C1 [Venetoclax]; conditions: max 1 µM
Method in brief: as §1

AZD5153 = compound: COc1nnc2ccc(N3CCC(c4ccc(OCCN5CCN(C)C(=O)[C@H]5C)cc4)CC3)nn12 [AZD5153]; conditions: max 1 µM
Method in brief: as §1

SN-38 = compound: CCc1c2c(nc3ccc(O)cc13)-c1cc3c(c(=O)n1C2)COC(=O)[C@]3(O)CC [SN-38]; conditions: max 0.3 µM
Method in brief: as §1

Doxorubicin = compound: COc1cccc2c1C(=O)c1c(O)c3c(c(O)c1C2=O)C[C@@](O)(C(=O)CO)C[C@@H]3O[C@H]1C[C@H](N)[C@H](O)[C@H](C)O1 [Doxorubicin]; conditions: max 1 µM
Method in brief: as §1

Savolitinib = compound: C[C@@H](c1ccc2nccn2c1)n1nnc2ncc(-c3cnn(C)c3)nc21 [Savolitinib]; conditions: max 1 µM
Method in brief: as §1

AZD4320 = compound: CN(CC[C@H](CSC1=CC=CC=C1)NC2=C(C=C(C=C2)S(=O)(=O)NC(=O)C3=CC=C(C=C3)N4CCC(CC4)[C@H](C5=CC=CC=C5C6=CC=C(C=C6)Cl)O)S(=O)(=O)C(F)(F)F)CCO [AZD4320]; conditions: max 1 µM
Method in brief: as §1

AZD6738 = compound: C[C@@H]1COCCN1C2=NC(=NC(=C2)C3(CC3)[S@](=N)(=O)C)C4=C5C=CNC5=NC=C4 [AZD6738]; conditions: max 10 µM
Method in brief: as §1

AZD8186 = compound: C[C@@H](Nc1cc(F)cc(F)c1)c1cc(C(=O)N(C)C)cc2c(=O)cc(N3CCOCC3)oc12 [AZD8186]; conditions: max 3 µM
Method in brief: as §1

Crizotinib = compound: C[C@@H](Oc1cc(-c2cnn(C3CCNCC3)c2)cnc1N)c1c(Cl)ccc(F)c1Cl [Crizotinib]; conditions: max 10 µM
Method in brief: as §1

Dasatinib = compound: CC1=C(C(=CC=C1)Cl)NC(=O)C2=CN=C(S2)NC3=CC(=NC(=N3)C)N4CCN(CC4)CCO [Dasatinib]; conditions: max 2 µM
Method in brief: as §1

AZD0156 = compound: CN(C)CCCOc1ccc(-c2ccc3ncc4c(c3c2)n(C2CCOCC2)c(=O)n4C)cn1 [AZD0156]; conditions: max 3 µM
Method in brief: as §1

AZD1775 = compound: C=CCn1c(=O)c2cnc(Nc3ccc(N4CCN(C)CC4)cc3)nc2n1-c1cccc(C(C)(C)O)n1 [AZD1775]; conditions: max 3 µM
Method in brief: as §1

Lapatinib = compound: CS(=O)(=O)CCNCc1ccc(-c2ccc3ncnc(Nc4ccc(OCc5cccc(F)c5)c(Cl)c4)c3c2)o1 [Lapatinib]; conditions: max 10 µM
Method in brief: as §1

Prexasertib = compound: COc1cccc(OCCCN)c1-c1cc(Nc2cnc(C#N)cn2)n[nH]1 [Prexasertib]; conditions: max 1 µM
Method in brief: as §1

Palbociclib = compound: CC(=O)c1c(C)c2cnc(Nc3ccc(N4CCNCC4)cn3)nc2n(C2CCCC2)c1=O [Palbociclib]; conditions: max 10 µM
Method in brief: as §1

Row | Cell Line | IC50, cell viability 72 h (Trametinib) [µM] | IC50, cell viability 72 h (AZD5991) [µM] | IC50, cell viability 72 h (Selumetinib) [µM] | IC50, cell viability 72 h (AZD1390) [µM] | IC50, cell viability 72 h (Taselisib) [µM] | IC50, cell viability 72 h (Gefitinib) [µM] | IC50, cell viability 72 h (AZD2811) [µM] | IC50, cell viability 72 h (Capivasertib) [µM] | IC50, cell viability 72 h (SG3199) [µM] | IC50, cell viability 72 h (Olaparib) [µM] | IC50, cell viability 72 h (AZD7648) [µM] | IC50, cell viability 72 h (Alisertib) [µM] | IC50, cell viability 72 h (Venetoclax) [µM] | IC50, cell viability 72 h (AZD5153) [µM] | IC50, cell viability 72 h (SN-38) [µM] | IC50, cell viability 72 h (Doxorubicin) [µM] | IC50, cell viability 72 h (Savolitinib) [µM] | IC50, cell viability 72 h (AZD4320) [µM] | IC50, cell viability 72 h (AZD6738) [µM] | IC50, cell viability 72 h (AZD8186) [µM] | IC50, cell viability 72 h (Crizotinib) [µM] | IC50, cell viability 72 h (Dasatinib) [µM] | IC50, cell viability 72 h (AZD0156) [µM] | IC50, cell viability 72 h (AZD1775) [µM] | IC50, cell viability 72 h (Lapatinib) [µM] | IC50, cell viability 72 h (Prexasertib) [µM] | IC50, cell viability 72 h (Palbociclib) [µM]
1 | GOTO (Neuroblastoma) | > 1 | 0.398 | > 10 | > 0.3 | 4.55 | > 10 | 0.332 | > 10 | > 0.001 | > 10 | > 10 | 0.272 | > 1 | 0.0917 | 0.00391 | 0.193 | > 1 | > 1 | 0.592 | > 3 | 1.64 | > 2 | > 3 | 0.65 | 6.07 | 0.0118 | 7.01
2 | HC-1 (Other Blood Carcinomas) | > 1 | > 1 | > 10 | > 0.3 | 2.64 | > 10 | 0.884 | > 10 | > 0.001 | > 10 | > 10 | 0.752 | > 1 | 0.858 | 0.00453 | 0.151 | > 1 | 0.793 | 4.32 | > 3 | > 10 | 1.68 | > 3 | 0.187 | > 10 | 0.00696 | 9.65
3 | HuP-T3 (Pancreatic Carcinoma) | 0.567 | > 1 | > 10 | > 0.3 | > 10 | > 10 | > 1 | > 10 | > 0.001 | > 10 | > 10 | > 10 | > 1 | > 1 | 0.235 | > 1 | > 1 | > 1 | > 10 | > 3 | > 10 | 0.791 | > 3 | 1.61 | > 10 | 0.166 | > 10
4 | IMR-5 (Neuroblastoma) | > 1 | 0.107 | > 10 | > 0.3 | > 10 | > 10 | 0.0182 | > 10 | > 0.001 | > 10 | > 10 | 0.0183 | > 1 | 0.0696 | 0.0019 | 0.0649 | > 1 | 0.546 | 2.19 | > 3 | 2.21 | > 2 | > 3 | 0.498 | > 10 | 0.0136 | 6.63
